Measurements as given in US10280241B2, “Tackifier compounds and methods of using the same” (Iowa State University Research Foundation, Inc., priority 2012, dated 2019).

Columns and labels:
[1] = Water solubility of tackifiers; assay type: physicochemical
Source text: Altering the identity of the acid anhydride altered tackifier properties.

[2] = Glass transition temperature by DSC; assay type: physicochemical; conditions: measured by DSC
Protocol: Tack was measured by modifications to the […] standard. On an Instron® load frame, the tackifier to be tested was applied to a glass slide at a thickness of 0.1 mm. The slide was then clamped to a flat surface and, perpendicularly, a type 304 stainless steel probe measuring 5 mm in diameter, with a 90° polished tip was place above the slide. The probe was then lowered at a rate of 0.5 mm sec^−1 and contacted the surface at an average force of 1.5 N. The probe was then held on the surface for 1.0 sec and then raised at a rate of 0.5 mm sec^−1. Tack was measured as the maximum force required to remove the probe from the surface of the tackifier. Tg was measured by DSC.

Row | Water solubility (in words) [1] | Tg [2] [°C] | Compound
1 | substantially water-insoluble | −24 | O=C(O)CCCC(=O)O[C@H]1CO[C@H]2[C@@H]1OC[C@H]2OC(=O)CCCC(=O)O [3b]
2 | – | −2 | O=C(O)CCC(=O)O[C@@H]1CO[C@H]2[C@@H]1OC[C@H]2OC(=O)CCC(=O)O [5a]
3 | substantially water-soluble | −2 | O=C(O)CCC(=O)OC1COC2C(OC(=O)CCC(=O)O)COC12 (stereo not shown) [3a]
4 | – | 16 | O=C(O)C=CC(=O)O[C@H]1CO[C@H]2[C@@H]1OC[C@H]2OC(=O)C=CC(=O)O [3c]
5 | – | −26 | O=C(O)CCCC(=O)O[C@@H]1CO[C@H]2[C@@H]1OC[C@H]2OC(=O)CCCC(=O)O [5b]
